# Source: patent US20250114338A1, “TETRAHYDRO-PYRIDO[3,4-b]INDOLE ESTROGEN RECEPTOR MODULATORS AND USES THEREOF” (Genentech, Inc., priority 2014, published 2025)
# System: ER-alpha MCF7
# Assay: ER-alpha MCF7 HCS EC50; stated as measured by in vitro cell proliferation assays of Examples 902 and 903
# Assay type: cell-based
# Details: Homo sapiens, MCF7, MCF7 cells; Table 2
# Procedure, shortened: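 MCF7 cells seeded 1000-2000 cells/well for 16 h, then treated with nine-point 1:2 DMSO dilution series in quadruplicate at 37 °C, 5% CO2 for 4 days. Viable cells quantified by CellTiter-Glo ATP luminescence; EC50 calculated. Controls: fulvestrant at final 100 nM, DMSO 0.2% v/v.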
row,Compound,EC50
1,"C[C@H]1Cc2c([nH]c3ccc(F)cc23)[C@H](c2c(F)cc(OC3CN(CCCF)C3)cc2F)N1CC(F)(F)CO [Example 364, 3-((1S,3S)-1-(2,6-difluoro-4-((1-(3-fluoropropyl)azetidin-3-yl)oxy)phenyl)-6-fluoro-3-methyl-1,3,4,9-tetrahydro-2H-pyrido[3,4-b]indol-2-yl)-2,2-difluoropropan-1-ol]",9 nM
2,"C[C@@H]1Cc2c([nH]c3ccccc23)[C@@H](c2c(F)cc(NC3CN(CCCF)C3)cc2F)N1C[C@H](C)C(=O)O [Example 367, (2S)-3-[(1R,3R)-1-[2,6-difluoro-4-[[1-(3-fluoropropyl)azetidin-3-yl]amino]phenyl]-3-methyl-1,3,4,9-tetrahydropyrido[3,4-b]indol-2-yl]-2-methyl-propanoic acid]",8 nM
3,"C[C@@H]1Cc2c([nH]c3ccc(F)cc23)[C@@H](c2c(F)cc(OC3CN(CCCF)C3)cc2F)N1C[C@](C)(F)CO [Example 368, 3-(1-{2,6-Difluoro-4-[1-(3-fluoro-propyl)-azetidin-3-yloxy]-phenyl}-6-fluoro-3-methyl-1,3,4,9-tetrahydro-beta-carbolin-2-yl)-2-fluoro-2-methyl-propan-1-ol]",0.546 nM
4,"C[C@H]1Cc2c([nH]c3ccc(F)cc23)[C@H](c2c(F)cc(OC3CN(CCCF)C3)cc2F)N1C[C@@](C)(F)CO [Example 369, 3-((1S,3S)-1-(2,6-difluoro-4-((1-(3-fluoropropyl)azetidin-3-yl)oxy)phenyl)-6-fluoro-3-methyl-1,3,4,9-tetrahydro-2H-pyrido[3,4-b]indol-2-yl)-2-fluoro-2-methylpropan-1-ol]",24 nM
5,"C[C@@H]1Cc2c([nH]c3ccc(F)cc23)[C@@H](c2c(F)cc(OC3CN(CCCF)C3)cc2F)N1C[C@@](C)(F)CO [Example 370, 3-((1R,3R)-1-(2,6-difluoro-4-((1-(3-fluoropropyl)azetidin-3-yl)oxy)phenyl)-6-fluoro-3-methyl-1,3,4,9-tetrahydro-2H-pyrido[3,4-b]indol-2-yl)-2-fluoro-2-methylpropan-1-ol]",0.203 nM
6,"C[C@H]1Cc2c([nH]c3ccc(F)cc23)[C@H](c2c(F)cc(OC3CN(CCCF)C3)cc2F)N1C[C@](C)(F)CO [Example 371, 3-((1S,3S)-1-(2,6-difluoro-4-((1-(3-fluoropropyl)azetidin-3-yl)oxy)phenyl)-6-fluoro-3-methyl-1,3,4,9-tetrahydro-2H-pyrido[3,4-b]indol-2-yl)-2-fluoro-2-methylpropan-1-ol]",9 nM

# More lines, now with the values ahead:
row,EC50,Compound
1,0.198 nM,"C[C@@H]1Cc2c([nH]c3ccc(F)cc23)[C@@H](c2c(F)cc(NC3CN(CCCF)C3)cc2F)N1CC(F)(F)F [Example 372, N-(3,5-difluoro-4-((1R,3R)-6-fluoro-3-methyl-2-(2,2,2-trifluoroethyl)-2,3,4,9-tetrahydro-1H-pyrido[3,4-b]indol-1-yl)phenyl)-1-(3-fluoropropyl)azetidin-3-amine]"
2,18 nM,"C[C@H]1Cc2c([nH]c3ccc(F)cc23)[C@H](c2c(F)cc(NC3CN(CCCF)C3)cc2F)N1CC(F)(F)F [Example 373, N-(3,5-difluoro-4-((1S,3S)-6-fluoro-3-methyl-2-(2,2,2-trifluoroethyl)-2,3,4,9-tetrahydro-1H-pyrido[3,4-b]indol-1-yl)phenyl)-1-(3-fluoropropyl)azetidin-3-amine]"
3,1.55 nM,"C[C@@H]1Cc2c([nH]c3ccccc23)[C@@H](c2c(F)cc(OCCN3CC(CF)C3)cc2F)N1CC(C)(C)C(=O)O [Example 374, 3-((1R,3R)-1-(2,6-difluoro-4-(2-(3-(fluoromethyl)azetidin-1-yl)ethoxy)phenyl)-3-methyl-1,3,4,9-tetrahydro-2H-pyrido[3,4-b]indol-2-yl)-2,2-dimethylpropanoic acid]"
4,0.764 nM,"C[C@@H]1Cc2c([nH]c3ccccc23)[C@@H](c2c(F)cc(OC3CN(CCCF)C3)cc2F)N1C[C@H](CO)C(F)(F)F [Example 375, (R)-2-(((1R,3R)-1-(2,6-difluoro-4-((1-(3-fluoropropyl)azetidin-3-yl)oxy)phenyl)-3-methyl-1,3,4,9-tetrahydro-2H-pyrido[3,4-b]indol-2-yl)methyl)-3,3,3-trifluoropropan-1-ol]"
